Key:
[1] = Volume of hair switches by image analysis after soaking and combing, no heat treatment (Example 3); settings: 30 min soak; for volume of treated hair switches: combed straight, dried; for % benefit: water as control
Source text: Control switches were soaked in water.
When dry the switches were combed straight and pictures taken.

[2] = Volume of hair switches by image analysis after soaking, ironing at 200° C. and washing (Example 1)
Method: Dark brown wavy #6 European hair switches were soaked for 30 minutes in solutions of 2% glyceraldehyde at its natural or spontaneous pH.
All switches were combed straight and were dried in drying cabinets. When dry the switches were ironed with 7 passes using straighteners at 200° C.
The switches were subsequently washed after 3 days with base shampoo and combed straight and dried in drying cabinets.
When dry the switches were combed and pictures taken. The volumes of the switches were measured using an image analysis kit.
If the switches are visually straight then the volume of the switches (actually the projection of the volume in mm^2 on to an image plane) is a measure of the straightness benefits of the treatment.

Row | SMILES | volume of treated hair switches [1] | % benefit [1] | % benefit after ironing + 1 wash ([2]; 2% glyceraldehyde solution, 30 min soak, 7 iron passes at 200° C., 1 wash, versus control) | % benefit after ironing + 2 washes ([2]; 2% glyceraldehyde solution, 30 min soak, 7 iron passes at 200° C., 2 washes, versus control) | Volume of treated hair switches after ironing + 2 washes ([2]; 2% glyceraldehyde solution, 30 min soak, 7 iron passes at 200° C., 3 day gap between washings) | Volume of treated hair switches after ironing + 1 wash ([2]; 2% glyceraldehyde solution, 30 min soak, 7 iron passes at 200° C., washed after 3 days with base shampoo) | straightness benefit (in words) ([2]; with heat treatment, after washing)
1 | NCCCC[C@H](N)C(=O)O [2% Lysine, lysine] | 9975 mm^2 | 37.2% |  |  |  |  | 
2 | O=CC(O)CO (stereo not drawn) [Glyceraldehyde, glyceraldehyde] | 12458 mm^2 | 21.6% | 26.4% | 11.3% | 11191.17 mm^2 | 10927.15 mm^2 | durable straightness benefits

— patent US10588839B2, “Method of shaping hair” (Conopco, Inc., priority 2013, dated 2020)
